Measurements from US9201014B2, “Development of photostable near-IR cyanine dyes for in vivo imaging” (National University of Singapore, priority 2010, dated 2015).

Key:
Assay type in all cases: physicochemical
[1] = Time-course fluorescence measurements (photobleaching rate constants) of CyN and CyNA derivatives in HEPES buffer; details: for k, rate of photobleaching: 10 μM in 10 mM HEPES pH 7.4, 1% DMSO, pseudo-first order; for kCyN/kCyNA: ratio of photobleaching rate constants, aqueous media
Procedure: Values were fitted to a non-linear regression one-phase exponential decay (GraphPad Prism 5.0). Detailed statistics for the one-phase decay analysis of the CyN compounds and 1 follow: Photodecomposition rate constants were determined by plotting -ln(F/F0) vs time, and calculated using a pseudo-first order rate equation. See […]., et al., Photochem. Photobiol. 2000, 72, 392-398.

[2] = Absorbance and fluorescence maximum wavelengths and quantum yields of the CyNA library; details: for λabs, absorbance maximum wavelength / λem, fluorescence maximum wavelength: CyNA library; for φ, quantum yield: in DMSO, Cardiogreen as standard
Method in brief: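 Absorption and emission maxima and quantum yields of the 80-member amine-derivatized CyNA library were measured on a plate spectrophotometer.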

[3] = Primary screening of photostability of the CyNA library (time-course fluorescence, 8 h); parameters: F/Fo, fluorescent intensity at 8 hours vs 0 hours: unit: %; details: 10 μM in HEPES 100 mM pH 7.4, 2% DMSO
Method in brief: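 CyNA dyes at 10 μM in 100 mM HEPES pH 7.4 with 2% DMSO irradiated by xenon lamp for 8 h. Fluorescence (ex/em 790-820 nm) read every 10 min; stability given as F8h/Fo.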

[4] = Characterization of the CyNAMLA library (absorbance maximum wavelengths); details: absorbance maximum wavelength of CyNAMLA library compounds
Procedure: The amine group of 21 was protected using di-tert-butyl dicarbonate then derivatized with 80 different primary amines (for structures, see FIGS. 14A-14D). After acetylation of the newly-introduced amine, the compounds were treated with a solution of TFA-DCM (1:9) to remove the tert-butylcarbamate protecting group. The deprotected amine was then coupled to lipoic acid to yield CyNAMLA derivatives with an average purity of 90% (for HPLC-determined purities, see Table 6).

[5] = Primary screen of SERS intensities of CyNAMLA-functionalized AuNPs (compact Raman scanner); details: SERS spectra of CyNAMLA-functionalized AuNPs; excitation at 785 nm, laser power 60 mW
Procedure: FIG. 15 is a graph of the comparative surface-enhanced Raman spectroscopy (SERS) intensities of members of the CyNAMLA library measured with an excitation wavelength of 785 nm and a laser power of 60 mW in a compact Raman scanner.
The CyNAMLA compounds were adsorbed onto AuNPs having a diameter of approximately 60 nm, and the SERS properties of the resulting CyNAMLA-functionalized AuNPs were evaluated using a compact Raman scanner. Among metal nanoparticles, AuNPs are particularly suitable for in vivo applications due to their low toxicity, adaptability to bioconjugation, and reproducible signal intensity and quantification.

Structure (SMILES)	λabs (max) [4] [nm]	Raman intensity [5]	k, rate of photobleaching [1] [s⁻¹]	kCyN/kCyNA [1]	λabs, absorbance maximum wavelength [2] [nm]	λem, fluorescence maximum wavelength [2] [nm]	φ, quantum yield [2]	F/Fo, fluorescent intensity at 8 hours vs 0 hours [3]	max RFU, maximum relative fluorescence units [3]
CCCN1/C(=C/C=C2\CCCC(/C=C/C3=[N+](CCC)c4ccccc4C3(C)C)=C2N(CCc2ccccn2)C(C)=O)C(C)(C)c2ccccc21.[I-] [CyNA-111]			3.41e-06	12	804	818	0.11	96	565.6
CCCN1/C(=C/C=C2\CCCC(/C=C/C3=[N+](CCC)c4ccccc4C3(C)C)=C2N(CC)C(C)=O)C(C)(C)c2ccccc21.[I-] [CyNA-295]			3.81e-06	8	806	820	0.11	100	698.6
CCCN1/C(=C/C=C2\CCCC(/C=C/C3=[N+](CCC)c4ccccc4C3(C)C)=C2N(CCCOC)C(C)=O)C(C)(C)c2ccccc21.[I-] [CyNA-165]			4.53e-06	8	806	821	0.09	94	775.1
CCCN1/C(=C/C=C2\CCCC(/C=C/C3=[N+](CCCNC(=O)CCCCC4CCSS4)c4ccccc4C3(C)C)=C2N(CC2CCCCC2)C(C)=O)C(C)(C)c2ccccc21.O=C([O-])C(F)(F)F (stereo not shown) [CyNAMLA-382]	804	7947							
CCCCCCCN(C(C)=O)C1=C(/C=C/C2=[N+](CCCNC(=O)CCCCC3CCSS3)c3ccccc3C2(C)C)CCC/C1=C\C=C1\N(CCC)c2ccccc2C1(C)C.O=C([O-])C(F)(F)F (stereo not shown) [CyNAMLA-277]	804	2046							

Further lines, with some results ahead:

λabs (max) [4] [nm]	Raman intensity [5]	Structure (SMILES)	k, rate of photobleaching [1] [s⁻¹]	kCyN/kCyNA [1]	λabs, absorbance maximum wavelength [2] [nm]	λem, fluorescence maximum wavelength [2] [nm]	φ, quantum yield [2]	F/Fo, fluorescent intensity at 8 hours vs 0 hours [3]	max RFU, maximum relative fluorescence units [3]
804	1922	CCCN1/C(=C/C=C2\CCCC(/C=C/C3=[N+](CCCNC(=O)CCCCC4CCSS4)c4ccccc4C3(C)C)=C2N(Cc2ccc(F)cc2)C(C)=O)C(C)(C)c2ccccc21.O=C([O-])C(F)(F)F (stereo not shown) [CyNAMLA-218]							
804	1121	CCCN1/C(=C/C=C2\CCCC(/C=C/C3=[N+](CCCNC(=O)CCCCC4CCSS4)c4ccccc4C3(C)C)=C2N(Cc2ccc(OC)cc2OC)C(C)=O)C(C)(C)c2ccccc21.O=C([O-])C(F)(F)F (stereo not shown) [CyNAMLA-358]							
804	2920	CCCN1/C(=C/C=C2\CCCC(/C=C/C3=[N+](CCCNC(=O)CCCCC4CCSS4)c4ccccc4C3(C)C)=C2N(Cc2ccccn2)C(C)=O)C(C)(C)c2ccccc21.O=C([O-])C(F)(F)F (stereo not shown) [CyNAMLA-401]							
804	9679	CCCN1/C(=C/C=C2\CCCC(/C=C/C3=[N+](CCCNC(=O)CCCCC4CCSS4)c4ccccc4C3(C)C)=C2N(CCc2ccccc2F)C(C)=O)C(C)(C)c2ccccc21.O=C([O-])C(F)(F)F (stereo not shown) [CyNAMLA-477]							
806	8146	CCCN1/C(=C/C=C2\CCCC(/C=C/C3=[N+](CCCNC(=O)CCCCC4CCSS4)c4ccccc4C3(C)C)=C2N(CCc2ccc(Cl)cc2Cl)C(C)=O)C(C)(C)c2ccccc21.O=C([O-])C(F)(F)F (stereo not shown) [CyNAMLA-686]							
804	2201	CCCN1/C(=C/C=C2\CCCC(/C=C/C3=[N+](CCCNC(=O)CCCCC4CCSS4)c4ccccc4C3(C)C)=C2N(Cc2cccc(OC)c2OC)C(C)=O)C(C)(C)c2ccccc21.O=C([O-])C(F)(F)F (stereo not shown) [CyNAMLA-124]							
